The text below walks through data of patent US20250296959A1, “B7-H3 TARGETING PEPTIDES AND CONSTRUCTS THEREOF” (Mariana Oncology Inc., priority 2024, published 2025).

This test has as its target T1, human 4lg B7-H3 (Homo sapiens, UniProt Q5ZPR3).
T1 sequence (Q5ZPR3 29-534): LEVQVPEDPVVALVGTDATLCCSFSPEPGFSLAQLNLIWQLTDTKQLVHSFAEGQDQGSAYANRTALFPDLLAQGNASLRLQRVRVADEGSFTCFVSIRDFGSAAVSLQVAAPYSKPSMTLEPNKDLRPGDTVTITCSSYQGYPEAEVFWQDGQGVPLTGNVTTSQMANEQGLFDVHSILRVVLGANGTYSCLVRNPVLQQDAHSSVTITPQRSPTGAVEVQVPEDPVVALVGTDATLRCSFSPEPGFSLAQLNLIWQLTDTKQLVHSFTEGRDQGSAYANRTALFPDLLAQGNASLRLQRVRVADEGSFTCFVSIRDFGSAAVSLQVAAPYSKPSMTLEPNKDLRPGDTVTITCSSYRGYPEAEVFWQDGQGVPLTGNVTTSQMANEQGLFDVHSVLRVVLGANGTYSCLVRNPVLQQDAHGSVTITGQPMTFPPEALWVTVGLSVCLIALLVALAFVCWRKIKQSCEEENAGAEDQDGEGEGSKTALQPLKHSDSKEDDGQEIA
In words: Affinity determination by surface plasmon resonance (SPR) to 4Ig B7-H3. Particulars: 4Ig B7-H3.

Where [1] appears, read: SPR KD—37° C., 37° C. flow cell temperature.
[2] abbreviates: SPR KD—25° C., 25° C. flow cell temperature.

Each structure is given as a SMILES string. Starred links: 1 amine or outer side, 2 acyl side, 3 side chain; linkers in the order of their positions; H or OH if unused. Positions of bridges follow the written chain, without caps; N, C: chain ends. Non-standard residues stand in square brackets, D forms with d. Residues, ends and D or L forms follow the SMILES beside them. *: point of attachment. X6 = CSCC[C@H](NC(=O)c1ccc(CNC(=O)CN2CCN(CC(=O)O)CCN(CC(=O)O)CCN(CC(=O)O)CC2)cc1)C(=O)N[C@H](C(=O)N[C@@H](CCCCN*)C(=O)O)C(C)C; Ala(piperidin-4-yl) = O=C([C@H](CC1CCN([*:3])CC1)N[*:1])[*:2]; DOTA = O=C(O)CN1CCN(CC(=O)O)CCN(CC(=O)*)CCN(CC(=O)O)CC1; Trp(5-Cl) = N[C@@H](Cc1c[nH]c2ccc(Cl)cc12)C(=O)O; Phe(4-COOH) = N[C@@H](Cc1ccc(C(=O)O)cc1)C(=O)O; Trp(5-F) = N[C@@H](Cc1c[nH]c2ccc(F)cc12)C(=O)O; X1 = C[C@@H](c1ccccc1)[C@H](N[*:1])C(=O)[*:2]; Ala(4-THP) = N[C@@H](CC1CCOCC1)C(=O)O; Val(3-OH) = CC(C)(O)[C@H](N)C(=O)O; 4Pal = N[C@@H](Cc1ccncc1)C(=O)O; Tle = CC(C)(C)[C@H](N)C(=O)O; hLeu = CC(C)CC[C@H](N)C(=O)O; Nle = CCCC[C@H](N)C(=O)O

The term Kd denotes the concentration at which binding is half-saturated. `CC(=O)N[C@@H](CCC(C)C)C(=O)N[C@@H](Cc1ccc(O)cc1)C(=O)N[C@H]1CSSC[C@@H](C(=O)N[C@@H](Cc2c[nH]c3ccc(F)cc23)C(=O)N[C@@H](Cc2ccccc2)C(=O)N[C@H](C(=O)N[C@H](CCC(=O)O)C(N)=O)C(C)(C)O)CC(=O)[C@H](Cc2ccc(O)cc2)NC(=O)[C@H](C(C)C)NC(=O)[C@H](CC(=O)O)NC(=O)[C@H](C[C@H]2CC[C@H](O)CC2)NC(=O)[C@H](CCCCNC(=O)CN2CCN(CC(=O)O)CCN(CC(=O)O)CCN(CC(=O)O)CC2)NC(=O)CNC(=O)[C@H](C(C)(C)C)NC1=O` [compound 425, Ac-hLeu-Y-C-Tbg-G-Lys(DOTA)-4OHCha(pk2)-D-V-Y-C-5FW-F-hydroxyVal-dGlu-CONH2] had a Kd under setting [1] of 1 to 10 nM. Compound `CC(=O)N[C@@H](CCC(C)C)C(=O)N[C@@H](Cc1ccc(O)cc1)C(=O)N[C@H]1CSSC[C@@H](C(=O)N[C@@H](Cc2c[nH]c3ccc(Cl)cc23)C(=O)N[C@@H](Cc2ccccc2)C(=O)N[C@H](C(=O)N[C@H](CCCCNC(=O)CN2CCN(CC(=O)O)CCN(CC(=O)O)CCN(CC(=O)O)CC2)C(N)=O)[C@@H](C)O)NC(=O)[C@H](Cc2ccc(O)cc2)NC(=O)[C@H](C(C)C)NC(=O)[C@H](CC(=O)O)NC(=O)[C@H](Cc2ccc(O)cc2)NC(=O)[C@H](CCCCN)NC(=O)CNC(=O)[C@H](C(C)(C)C)NC1=O` [compound 235, Ac-hLeu-Y-C-Tbg-G-K-Y-D-V-Y-C-5ClTrp-F-Thr-dLys(DOTA)-CONH2] (Ac-[hLeu]YC[Tle]GKYDVYC[Trp(5-Cl)]FT[dK](DOTA)-NH2; disulfide 3-11) showed a Kd under setting [2] of 1 to 10 nM. In the case of `CC(=O)N[C@@H](CCC(C)C)C(=O)N[C@@H](Cc1ccc(O)cc1)C(=O)N[C@H]1CSSC[C@@H](C(=O)N[C@@H](Cc2c[nH]c3ccc(F)cc23)C(=O)N[C@@H](Cc2ccccc2)C(=O)N[C@H](C(N)=O)C(C)(C)O)NC(=O)[C@H](Cc2ccc(O)cc2)NC(=O)[C@H](C(C)C)NC(=O)[C@H](CC(=O)O)NC(=O)[C@H](CC2CCNCC2)NC(=O)[C@H](CCCCNC(=O)CN2CCN(CC(=O)O)CCN(CC(=O)O)CCN(CC(=O)O)CC2)NC(=O)CNC(=O)[C@H](C(C)C)NC1=O` [compound 202, Ac-hLeu-Y-C-V-G-Lys(DOTA)-PipAla-D-V-Y-C-5FW-F-hydroxyVal-CONH2] (Ac-[hLeu]YCVGK(DOTA)[Ala(piperidin-4-yl)]DVYC[Trp(5-F)]F[Val(3-OH)]-NH2; disulfide 3-11), the Kd under setting [2] is 1 to 10 nM. On the same count and under the same terms, with `CC[C@H](C)[C@@H]1NC(=O)[C@@H](NC(=O)[C@H](Cc2ccc(O)cc2)NC(=O)[C@H](CCC(C)C)NC(C)=O)CSSC[C@@H](C(=O)N[C@@H](Cc2c[nH]c3ccc(F)cc23)C(=O)N[C@@H](Cc2ccccc2)C(=O)N2CCC[C@H]2C(N)=O)NC(=O)[C@H](Cc2ccc(O)cc2)NC(=O)[C@H](C(C)C)NC(=O)[C@H](CC(=O)O)NC(=O)[C@H](CC2CCOCC2)NC(=O)[C@H](CCCCNC(=O)CN2CCN(CC(=O)O)CCN(CC(=O)O)CCN(CC(=O)O)CC2)NC(=O)CNC1=O` [compound 261, Ac-hLeu-Y-C-Ile-G-Lys(DOTA)-ThpA-D-V-Y-C-5FW-F-Pro-CONH2] (Ac-[hLeu]YCIGK(DOTA)[Ala(4-THP)]DVYC[Trp(5-F)]FP-NH2; disulfide 3-11) the figure was 1 to 10 nM.

Under setting [1], `CSCC[C@H](NC(=O)c1ccc(CNC(=O)CN2CCN(CC(=O)O)CCN(CC(=O)O)CCN(CC(=O)O)CC2)cc1)C(=O)N[C@H](C(=O)N[C@@H](CCCCNC(=O)[C@@H](NC(=O)[C@@H](NC(=O)[C@H](Cc1c[nH]c2ccc(F)cc12)NC(=O)[C@@H]1CSSC[C@H](NC(=O)[C@H](Cc2ccc(O)cc2)NC(=O)[C@H](CCC(C)C)NC(C)=O)C(=O)N[C@@H](C(C)(C)C)C(=O)NCC(=O)N[C@@H](CC2CCNCC2)C(=O)N[C@@H](CC2CCOCC2)C(=O)N[C@@H](CC(=O)O)C(=O)N[C@@H](C(C)C)C(=O)N[C@@H](Cc2ccc(O)cc2)C(=O)N1)[C@@H](C)c1ccccc1)C(C)(C)O)C(=O)O)C(C)C` [Cpd #517, Ac-hLeu-Y-C-Tbg-G-PipAla-ThpA-D-V-Y-C-5FW-[(2S, 3S)beta-Me-Phe]-hydroxyVal-&Lys(Val-Met-AmBz-DOTA)-COOH] (Ac-[hLeu]YC[Tle]G[Ala(piperidin-4-yl)][Ala(4-THP)]DVYC[Trp(5-F)][X1][Val(3-OH)]-X6; disulfide 3-11) registered a Kd of less than 1 nM. For the compound `CCCC[C@@H]1NC(=O)[C@H](C(C)C)NC(=O)[C@H](CC(=O)O)NC(=O)[C@H](Cc2ccc(C(=O)O)cc2)NC(=O)[C@H](CCCCNC(=O)CN2CCN(CC(=O)O)CCN(CC(=O)O)CCN(CC(=O)O)CC2)NC(=O)CNC(=O)[C@H](C(C)C)NC(=O)[C@@H](NC(=O)[C@H](Cc2ccc(O)cc2)NC(=O)[C@H](CCC(C)C)NC(C)=O)CSSC[C@@H](C(=O)N[C@@H](Cc2c[nH]c3ccc(F)cc23)C(=O)N[C@@H](Cc2ccccc2)C(=O)N2CCC[C@H]2C(N)=O)NC1=O` [compound 302, Ac-hLeu-Y-C-V-G-Lys(DOTA)-4COOHPhe-D-V-Nle-C-5FW-F-Pro-CONH2] (Ac-[hLeu]YCVGK(DOTA)[Phe(4-COOH)]DV[Nle]C[Trp(5-F)]FP-NH2; disulfide 3-11), the Kd under setting [2] fell in the range of 100 to 300 nM. For `COc1ccc(C[C@@H]2NC(=O)[C@H](C(C)C)NC(=O)[C@H](CC(=O)O)NC(=O)[C@H](Cc3ccncc3)NC(=O)[C@H](CCCCNC(=O)CN3CCN(CC(=O)O)CCN(CC(=O)O)CCN(CC(=O)O)CC3)NC(=O)CNC(=O)[C@H](C(C)C)NC(=O)[C@@H](NC(=O)[C@H](Cc3ccc(O)cc3)NC(=O)[C@H](CCC(C)C)NC(C)=O)CSSC[C@@H](C(=O)N[C@@H](Cc3c[nH]c4ccc(F)cc34)C(=O)N[C@@H](Cc3ccccc3)C(=O)N3CCC[C@H]3C(N)=O)NC2=O)cc1` [compound 249, Ac-hLeu-Y-C-V-G-Lys(DOTA)-4PyA-D-V-OMeTyr-C-5FW-F-Pro-CONH2] (Ac-[hLeu]YCVGK(DOTA)[4Pal]DVY(Me)C[Trp(5-F)]FP-NH2; disulfide 3-11), under setting [2], the dissociation constant Kd was 1 to 10 nM. For `CC(=O)N[C@@H](CCC(C)C)C(=O)N[C@@H](Cc1ccc(O)cc1)C(=O)N[C@H]1CSSC[C@@H](C(=O)N[C@@H](Cc2c[nH]c3ccc(F)cc23)C(=O)N[C@@H](Cc2ccccc2)C(=O)N[C@H](C(=O)N[C@H](CO)C(=O)O)C(C)(C)O)NC(=O)[C@H](Cc2ccc(O)cc2)NC(=O)[C@H](C(C)C)NC(=O)[C@H](CC(=O)O)NC(=O)[C@H](CC2CCN(C(=O)CN3CCN(CC(=O)O)CCN(CC(=O)O)CCN(CC(=O)O)CC3)CC2)NC(=O)[C@H](CC2CCNCC2)NC(=O)CNC(=O)[C@H](C(C)(C)C)NC1=O` [compound 449, Ac-hLeu-Y-C-Tbg-G-PipAla-Pip(DOTA)Ala-D-V-Y-C-5FW-F-hydroxyVal-dSer-COOH] (Ac-[hLeu]YC[Tle]G[Ala(piperidin-4-yl)][Ala(piperidin-4-yl)](DOTA)DVYC[Trp(5-F)]F[Val(3-OH)][dS]-OH; disulfide 3-11), the Kd under setting [1] was less than 1 nM.

For the compound `CC(=O)N[C@@H](CCC(C)C)C(=O)N[C@@H](Cc1ccc(O)cc1)C(=O)N[C@H]1CSSC[C@@H](C(=O)N[C@@H](Cc2c[nH]c3ccc(F)cc23)C(=O)N[C@@H](Cc2ccccc2)C(=O)N[C@H](C(=O)O)C(C)(C)O)NC(=O)[C@H](Cc2ccc(O)cc2)NC(=O)[C@H](C(C)C)NC(=O)[C@H](CC(=O)O)NC(=O)[C@H](Cc2ccc(C(=O)O)cc2)NC(=O)[C@H](CCCCNC(=O)CN2CCN(CC(=O)O)CCN(CC(=O)O)CCN(CC(=O)O)CC2)NC(=O)CNC(=O)[C@H](C(C)C)NC1=O` [compound 325, Ac-hLeu-Y-C-V-G-Lys(DOTA)-4COOHPhe-D-V-Y-C-5FW-F-hydroxyVal-COOH] (Ac-[hLeu]YCVGK(DOTA)[Phe(4-COOH)]DVYC[Trp(5-F)]F[Val(3-OH)]-OH; disulfide 3-11), under setting [1], the Kd lay in the range of 10 to 100 nM.
